Values joined by “and” are separate entries in the source; they are usually repeats but may differ in a detail not shown here. Equal values may be shown once.
Columns and labels:
RIPK2 = assay: In vivo RIPK2 degradation in rat (PBMCs isolated from blood, Western blot)
Procedure: (§1) Rat PK/PD studies: On arrival, all rats were housed in a plastic solid bottom cage in groups of 2–3 with access to food and water ad libitum and under a 12 h light–dark cycle. Male CD or Wistar Han rats (7–9 weeks old, Charles River UK Ltd.) were randomly allocated to treatment groups upon arrival. Female CD rats (7–8 weeks old on arrival, Charles River Ltd.) were placed into groups using a randomization schedule based on body weight prior to the study start. All animals were acclimatized for a minimum of one week prior to the experiment commencing.
Subcutaneous PROTAC solution formulations were prepared on the day of dosing as outlined below and filtered through a 0.22 µm Millex PVDF filter (Millipore) prior to PROTAC administration. PROTAC 4 was dissolved in saline with the pH adjusted to 5.0 with sodium hydroxide (1 M). […].
(§2) Ex vivo stimulation of rat blood with L18-MDP for PD: PPD blood samples taken prior to PROTAC administration or at fixed timepoints post PROTAC administration through the course of the study, were treated ex vivo with 100 ng/mL L18-MDP (Invivogen) or vehicle (0.1% DMSO) and incubated for 4 h. Following centrifugation, plasma was collected for cytokines analysis as detailed in cytokines assay section. Additionally, RIPK2 levels were determined in PBMCs isolated from blood and where collected, in sampled colon tissue as described in the text.
Blood was mixed with optiPREP (Sigma) and following centrifugation at 1300 × g the PBMCs layer was collected. For in vivo studies, RIPK2 levels were determined immediately via immunoblotting, whereas for in vitro studies PBMCs were treated as detailed in the in vitro treatment section.
(§3) Statistics and reproducibility: All data were represented as percentage of the control sample: DMSO treated cells for the in vitro assays and the pre-dose or vehicle sample for the in vivo experiments.
For in vivo studies, RIPK2:tubulin ratios and cytokine levels from each individual experiment were analysed either using a One-way ANOVA with Dunnet’s post-test or a two way ANOVA using GraphPad Prism 5.0.4 to determine statistical significance with 95% confidence levels.

[1] = tested on: L18-MDP-induced TNFα release; assay: L18-MDP-induced cytokine release (TNFα, IL1β, IL-6, IL-8, IL-10) in human PBMCs; format: cell-based; settings: L18-MDP-induced TNFα release, human PBMCs, 6 h
Procedure: PBMCs were isolated from leukodepletion filter from platelet aphaeresis supplied by National Health System Blood and Transplant—NHSBT Apheresed at NHBST.
Before treatment with compound or vehicle, THP1 cells, human and rat PBMCs were counted using Vi-Cell cell counter (Invitrogen) and adjusted to a final cell density of […] using complete growth medium. Cells or whole blood were treated with vehicle (0.1% DMSO) or fixed concentrations of compound up to 1 μM in half log unit increments and incubated for the time period indicated in the figure.
Where the assessment of cytokines was performed, L18-MDP was added to the cell culture media (1 μg/ml) or to the rat blood samples (100 ng/ml) and samples were incubated for up to 4 h. […] Samples were them spun down at 1000 g and the cell culture supernatant, plasma or serum were collected for cytokines assessment, while cell pellets were used for RIPK2 and/or cIAP1, cIAP2, and XIAP levels analysis via immunoblotting.
(§4) Cytokine measurement assay: Cytokine levels were measured in rat plasma or rat PBMCs cell culture supernatants using rat V-Plex TNFα, in human plasma or human PBMCs cell culture supernatants with either TNFα tissue culture or 7-plex kit. Rat serum and tissues samples from the in vivo L18-MDP acute inflammation model were analyzed using the rat TNFα, Il-6 and IL-8 U-Plex kits. All kits provided by Meso Scale Discovery (MSD). Levels of cytokines spontaneously released from human colon biopsies cell culture supernatants were measured using Human IL-1 beta/IL-1F2 DuoSet ELISA (Bio-techne), Human IL-6 ELISA (Immunotools) and Human TNF-alpha DuoSet ELISA (Bio-techne). All samples were processed accordingly to the manufacturer’s instructions. The MSD plates were analyzed using the MSD sector imager 6000 plate reader and cytokines concentration (pg/ml) was obtained by using the MSD DISCOVERY WORKBENCH software version 4.0.12.1
In vitro experimental data were analyzed using a 4-parameter logistic equation in GraphPad Prism 5.0.4. to generate an estimate of the half-maximal concentration and maximal degradation, DC50 and Dmax value respectively, for concentration-degradation relationships. Cytokine levels were analyzed in a similar manner to yield IC50 and Imax values. […] Where analysis to a sigmoidal relationship was not possible, the data points are shown as mean ± s.e.m.

[2] = tested on: L18-MDP-stimulated TNFα release; assay: TNFα after ex vivo L18-MDP stimulation of blood from dosed rats; format: in vivo, rat; settings: for TNFa level after ex vivo L18-MDP stimulation vs pre-dose, individual rat: 20 mg/kg SC single dose, 7-day study
Procedure: as §1, with “Male” for “Rat PK/PD studies: On arrival, all rats were housed in a plastic solid bottom cage in groups of 2–3 with access to food and water ad libitum and under a 12 h light–dark cycle. Male”
Subcutaneous PROTAC solution formulations were prepared on the day of dosing as outlined below and filtered through a 0.22 µm Millex PVDF filter (Millipore) prior to PROTAC administration. PROTAC 4 was dissolved in saline with the pH adjusted to 5.0 with sodium hydroxide (1 M).
as §2, §4, §3

CN[C@@H](C)C(=O)N[C@H](C(=O)N1CCC[C@H]1c1nc(C(=O)c2ccc(F)cc2)cs1)C1CCN(C(=O)c2cnc(N3CCN(CCOc4cc5ncnc(Nc6n[nH]c(C)c6C)c5cc4S(=O)(=O)C(C)(C)C)CC3)nc2)CC1 [PROTAC 4]
RIPK2 level vs pre-dose, individual rat (RIPK2; 1 mg/kg SC, 14-day study, 8 h): 71.55% and 45.26% and 58.63% and 60.59% and 55.33%
RIPK2 level vs pre-dose, individual rat (RIPK2; 1 mg/kg SC, 14-day study, 72 h): 64.81% and 59.31% and 60.99% and 66.83% and 64.49%
RIPK2 level vs pre-dose, individual rat (RIPK2; 1 mg/kg SC, 14-day study, 240 h): 112.79% and 70.63% and 104.75% and 126.83% and 102.52%
RIPK2 level vs pre-dose, individual rat (RIPK2; 5 mg/kg SC, 14-day study, 8 h): 41.85% and 45.44% and 41.77% and 41.32% and 53.21%
RIPK2 level vs pre-dose, individual rat (RIPK2; 5 mg/kg SC, 14-day study, 72 h): 34.61% and 30.18% and 38.68% and 37.78% and 36.11%
RIPK2 level vs pre-dose, individual rat (RIPK2; 5 mg/kg SC, 14-day study, 240 h): 87.11% and 99.39% and 92.18% and 103.23% and 99.62%
RIPK2 level vs pre-dose, individual rat (RIPK2; 20 mg/kg SC single dose, 7-day study, 8 h): 28.87% and 26.27% and 38.47% and 28.32% and 30.61%
RIPK2 level vs pre-dose, individual rat (RIPK2; 20 mg/kg SC single dose, 7-day study, 24 h): 18.69% and 14.21% and 28.44% and 16.94% and 23.48%
RIPK2 level vs pre-dose, individual rat (RIPK2; 20 mg/kg SC single dose, 7-day study, 72 h): 6.86% and 4.61% and 6.88% and 8.62% and 8.55%
RIPK2 level vs pre-dose, individual rat (RIPK2; 20 mg/kg SC single dose, 7-day study, 168 h): 12.52% and 6.26% and 20.35% and 12.51% and 16.81%
RIPK2 level vs pre-dose, individual rat (RIPK2; 20 mg/kg SC, 14-day study, 8 h): 37.50% and 45.03% and 47.72% and 58.85% and 77.11%
RIPK2 level vs pre-dose, individual rat (RIPK2; 20 mg/kg SC, 14-day study, 72 h): 13.52% and 12.63% and 25.66% and 9.20% and 12.50%
RIPK2 level vs pre-dose, individual rat (RIPK2; 20 mg/kg SC, 14-day study, 240 h): 60.06% and 118.48% and 58.34% and 98.90% and 86.42%
RIPK2 degradation (RIPK2; rat, 14-day study, all dose levels (1, 5, 20 mg/kg SC), 8 h): 40–60%
RIPK2 protein levels, in words (RIPK2; rat, 14-day study, each dose group, 240 h): returned to baseline levels
RIPK2 degradation (RIPK2; rat, single 20 mg/kg SC, 72 h): > 80%
RIPK2 degradation (RIPK2; rat, single 20 mg/kg SC, 168 h): > 80%
hPBMC MDP pIC50 ± SEM, 6 h (n = 3) [1]: 8.0 ± 0.5
TNFa level after ex vivo L18-MDP stimulation vs pre-dose, individual rat ([2]; 8 h): 9.24% and 8.84% and 7.78% and 9.53% and 3.34%
TNFa level after ex vivo L18-MDP stimulation vs pre-dose, individual rat ([2]; 24 h): 3.87% and 3.74% and 8.65% and 6.37% and 4.55%
TNFa level after ex vivo L18-MDP stimulation vs pre-dose, individual rat ([2]; 72 h): 10.34% and 56.63% and 10.25% and 43.76% and 3.57%
TNFa level after ex vivo L18-MDP stimulation vs pre-dose, individual rat ([2]; 168 h): 12.29% and 8.70% and 24.16% and 13.36% and 15.12%
TNFα inhibition following ex vivo L18-MDP stimulation in rat blood ([2]; single 20 mg/kg SC, throughout the 7-day study): > 70%

Source: article PMC7083851, “Extended pharmacodynamic responses observed upon PROTAC-mediated degradation of RIPK2” (Communications Biology, 2020)
